Test results reported in patent publication US12084444B2, “Spiro-lactam NMDA modulators and methods of using same” (Tenacia Biotechnology (Hong Kong) Co., Limited, priority 2016, dated 2024).

Columns and labels:
[1] = tested on: rats; assay: Positive emotional learning (PEL) test, 50-kHz ultrasonic vocalizations; assay type: in vivo, rat; details: dose range 0.001-1 mg/kg, orally; tested one hour after administration
Method: Experiments were conducted as described in Burgdorf et al., “The effect of selective breeding for differential rates of 50-kHz ultrasonic vocalizations on emotional behavior in rats,” Devel. Psychobiol., 51:34-46 (2009). Rat 50-kHz ultrasonic vocalization (hedonic USVs) is a validated model for the study of positive affective state and is best elicited by rough-and-tumble play.
The PEL assay measures the acquisition of positive (hedonic) 50-kHz ultrasonic vocalizations (USVs) to a social stimulus, heterospecific rough and tumble play stimulation. Heterospecific rough-and-tumble play stimulation was administered by the experimenter's right hand. […] High frequency ultrasonic vocalizations (USVs) were recorded and analyzed by sonogram with Avasoft SASlab Pro (Germany) as previously described by Burgdorf et al., “Positive emotional learning is regulated in the medial prefrontal cortex by GluN2B-containing NMDA receptors,” Neuroscience, 192:515-523 (2011). Frequency modulated 50-kHz USVs that occurred during each of the no-stimulation periods were quantified to measure PEL. […] Positive emotional learning was measured during the conditioned stimulus (CS) trials preceding the tickle unconditioned stimulus (UCS) trials. […]

[2] = Oral pharmacokinetics (plasma, brain, CSF); assay type: in vivo, Sprague Dawley rats; details: rat, per os, 10 mg/kg
Method: In another experiment, Sprague Dawley rats were dosed per os using a normal saline formulation containing 10 mg/kg of the compounds identified in the table below. Plasma, brain, and CSF samples were analyzed at various time points over a 24 hour period. The table below summarizes the results of the oral pharmacokinetics.

[3] = tested on: Sprague Dawley rats; assay: Bennett model of mechanical analgesia (sciatic nerve chronic constriction injury); assay type: in vivo
Method: The Bennett model of mechanical analgesia is used to assess the analgesic effects of compounds as measured by paw withdrawal threshold. Bennett G J, Xie Y K, “A peripheral mononeuropathy in rat that produces disorders of pain sensation like those seen in man,” Pain 33:87-107, 1988. […] Vehicle animals receive the surgery and then receive vehicle rather than test compound. Animals were tested 1 hr, 24 h and 1 wk post-test compound or vehicle administration.
Male 2-3 month old Sprague Dawley rats were used. Harlan was the supplier for all studies. Rats were housed in Lucite cages with aspen wood chip bedding, maintained on a 12:12 light:dark cycle (lights on at 5 AM), and given ad libitum access to Purina lab chow (USA) and tap water throughout the study.
Rats were anesthetized using inhaled isoflurane (2.5%). Sciatic nerve chronic constriction nerve injury surgery was performed as previously described (Bennett and Xie, 1988). An incision (˜1.5 cm in length) was made with a scalpel blade dorsally through skin on the right hind limb, parallel and posterior to femur. Using a small pointed hemostat, the biceps femoris and gluteus superficialis muscles were separated. Using curved blunt forceps, the common sciatic nerve was isolated and exposed. For the mechanical analgesia studies, the whole sciatic nerve was ligated. Using hemostats/forceps and chromic gut (5-0), the nerve was loosely ligated with a square knot; 3 ligatures, 1 mm apart were placed on the nerve. […] Testing occurred approximately 2 weeks post-surgery.
During testing, rats were acclimated to the surface of a suspended wire mesh grid (1 cm×1 cm, with the wire being 0.3 cm in diameter) for 15-20 min. Starting from the smallest, each Von Frey filament was pressed perpendicularly to the plantar surface of the affected (ipsilateral) hind paw until slightly bent and then held for 6 second. If an obvious hind paw withdrawal or a flinching behavior immediately after the withdrawal of the filament was not observed, the next larger filament was used in the same manner. In case of a response, a lower filament was used. This was repeated until six responses were collected.
For all studies, animals were baselined prior to study start to test for allodynia (defined as a paw withdrawal threshold under 5). A subset of animals was tested with gabapentin (150 mg/kg, PO) to ensure at least 50% analgesia. Once it was confirmed animals were ready for study initiation, animals were balanced across groups. All study investigators were blind to treatment conditions. Animals were dosed with 0.1, 1, 10, or 30 mg/kg of test compound via oral gavage (PO), control sets of animals were dosed with gabapentin (150 mg/kg, PO) or vehicle (0.5% Na-CMC in 0.9% sterile saline, PO). Testing occurred 1 h post-dosing with animals retested 24 hrs and 1 week post-dosing. The percent analgesia calculations for each animal were made using the following equation: % analgesia=[(log(x)−y)/((log (z)−y)]*100, where x=the paw withdrawal threshold for the drug-treated animal in grams, y=the average of the log(x) values for the vehicle treated group, and z=the paw withdrawal threshold for naïve animals in grams (historical value of 15 used). The results for Compound AA-2, where the percentage of analgesia is measured at 1 hour, 24 hours, and 1 week after compound administration are as follows: for 0.1 mg/kg dose: 22.3% at 1 h, 1.6% at 24 h, and 2.3% at 1 wk; for 1 mg/kg dose: 19.2% at 1 h, 10.7% at 24 h, and 11.0% at 1 wk; for 10 mg/kg dose: 38.1% at 1 h, 24.3% at 24 h, and 41.4% at 1 wk; and for 30 mg/kg dose: 24.4% at 1 h, 8.7% at 24 h, and 34.5% at 1 wk.

COc1ccc(CN2C[C@@]3(CCNC(=O)C3)C2=O)cc1 [Compound AA-2, 2-(4-methoxybenzyl)-2,7-diazaspiro[3.5]nonane-1,6-dione]
maximum effect, mean number of 50 kHz USVs per 15 seconds [1]: 10.1-20 50 kHz USVs per 15 seconds
AUC(0-t) ([2]; Sprague Dawley, plasma, po): 17300 ng·h/mL
bioavailability ([2]; Sprague Dawley, plasma, po): 100%
Tmax ([2]; Sprague Dawley, plasma, po, normal saline): 15 min
Cmax ([2]; Sprague Dawley, po, plasma): 11300 ng/mL
CSF Cmax ([2]; CSF): 1476.3 ng/mL
Brain Cmax ([2]; brain): 1107.2 ng/mL
% analgesia ([3]; 0.1 mg/kg PO, 1 wk): 2.3%
% analgesia ([3]; 0.1 mg/kg PO, 1 h): 22.3%
% analgesia ([3]; 0.1 mg/kg PO, 24 h): 1.6%
% analgesia ([3]; 1 mg/kg PO, 1 wk): 11.0%
% analgesia ([3]; 1 mg/kg PO, 1 h): 19.2%
% analgesia ([3]; 1 mg/kg PO, 24 h): 10.7%
% analgesia ([3]; 10 mg/kg PO, 1 wk): 41.4%
% analgesia ([3]; 10 mg/kg PO, 1 h): 38.1%
% analgesia ([3]; 10 mg/kg PO, 24 h): 24.3%
% analgesia ([3]; 30 mg/kg PO, 1 wk): 34.5%
% analgesia ([3]; 30 mg/kg PO, 1 h): 24.4%
% analgesia ([3]; 30 mg/kg PO, 24 h): 8.7%
